Data from US4098891A, “Certain s-triazines as lipogenesis inhibitors” (Shell Oil Company, priority 1977, dated 1978).

Experiments:
[1] = tested on: whole epididymal fat pads; assay: Inhibition of incorporation of acetate-1-14C into long chain fatty acids in rat epididymal fat pads; format: cell-based, Sprague-Dawley rats; conditions: for inhibition at 100 µM: 1 h, 10^-4 M, 60 minutes, acetate-1-14C, read-out: Percent Inhibition of incorporation of acetate into long chain fatty acids
Experimental: The effect of Compounds 1, 15, 19, 20, 21, 22 and 33 on rats was determined by a modification of the method of D. D. Feller, J. Biol. Chem., 206, 171 (1954): whole epididymal fat pads from 110-150 gram Sprague-Dawley rats were incubated in 4 milliliters of Krebs-Ringer bicarbonate buffer for 30 minutes in an atmosphere of 95% O2 -5% CO2. At the end of the 30 minute period 1 milliliter of Krebs-Ringer bicarbonate buffer containing 8.2 micromoles of acetate (0.1 microcuries of acetate-1-^14 C), 55.0 micromoles of glucose and 50.0 micromoles of succinic acid was added to the incubating mixture and the incubation was continued for 60 minutes more. Test compounds were dissolved in dimethyl sulfoxide (DMSO) and added to the incubating mixture with the fat pad. […] The concentration of the test compound in the liquid medium was 10^-4 M. The incubation was carried out with paired fat pads; the contralateral fat pad from the same rat served as the untreated control.
After incubation, the fat pads were washed in two 5 milliliter aliquots of normal saline and extracted twice with 20 milliliters of chloroform:methanol (2:1) by vigorous shaking for 60 minutes. The extracts were combined and brought to volume with fresh organic solvent in a 50 milliliter volumetric flask containing 1 milliliter of 3N hydrochloric acid. A 5 milliliter aliquot of this mixture was transferred into a 20 milliliter scintillator vial and evaporated to dryness (50° C) to remove traces of acetic acid. To the vials were added 17 ml of scintillator solution consisting of 0.3% diphenyloxazole and 0.01% of 1,4-bis(2,5-phenyloxazolyl)benzene in a solvent of 23% ethanol in toluene. Radioactivity was measured by liquid scintillation counting.
Table II indicates the percent inhibition of incorporation of the acetate into long chain fatty acids--a measure of inhibition of lipogenesis.

swine adipose tissue = assay: Inhibition of lipogenesis (lipid synthesis from glucose-U-14C) in slices of swine adipose tissue in vitro; format: cell-based; conditions: Sus scrofa, 100 micrograms per milliliter, 2 hours at 37° C, 5% DMSO, read-out: Percent Inhibition of lipogenesis (lipid synthesis) compared to control
Description: The manner in which they cause this effect is not known with certainty; it is believed that they interfere with the synthesis of fatty acids in the tissues. Their effectiveness for this purpose has been ascertained in one series of tests by immersing samples of swine adipose tissue in a liquid medium containing radioactive glucose and the test chemical, for a period of time, then isolating the lipid from the treated tissue and determining the up-take of the radioactive carbon by means of scintillation counting techniques. These tests were conducted in swine adipose tissue because in swine, the primary site of lipogenesis--i.e., fatty acid synthesis--appears to be adipose tissue.
Described in more detail, the tests were conducted according to the following general procedure:
150 Milligrams of slices of swine adipose tissue were incubated at 37° C for 2 hours with shaking in 3 milliliters of Krebs-Ringer bicarbonate solution containing one half the normal calcium ion concentration, 60 micromoles of glucose, 0.5 micro-Curie of glucose-U^14 C, 300 microunits of insulin, and 5% dimethyl sulfoxide (DMSO). The test compounds were added as suspensions or solutions in DMSO and were present at a concentration of 100 micrograms per milliliter of the incubation mixture.
The incubation was terminated by addition of 0.25 milliliter of 1 N sulfuric acid. The resulting mixture was extracted with a total of 25 milliliters of chloroform:methanol (2:1, v/v). The extracts were washed according to Folch et al. (J. Biol. Chem., 226, 497-509, (1957)), air dried, and counted in a liquid scintillation counter with 15 milliliters of counting fluid (two parts toluene containing 0.4% w/v New England Nuclear Omnifluor; 1 part Triton X-100. The tests were conducted in triplicate and were accompanied by control tests in which all ingredients,proportions and conditions were the same except that no test compound was included. From the data obtained were calculated the percent inhibition of lipid synthesis by the test compound in each case. The data obtained from the tests are set out in Table 1, as the percent inhibition of lipogenesis compared to the results obtained in the control tests wherein only the test compound was omitted.

rats = assay: Rats fed Compound 1 in the diet; lipogenesis by weighing fat pads; format: in vivo; conditions: Compound 1 in diet, compared to control rats
swine = assay: In vivo test in young, growing pigs fed Compound 1; lipogenesis in adipose tissue biopsy slices; conditions: in feed, approximately 50 mg/kg body weight per day for seven days
Experimental: The effect of compound 1 on inhibition of lipogenesis in swine was confirmed by an in vivo test in which Compound 1 was included in the feed given to young, growing pigs for seven days, at a dosage of approximately 50 milligrams of Compound 1 per kilogram of the pig's body weight per day. Adipose tissue biopsy samples were taken at days 0, 6, 7 and 13 (one week off the drug) and the effect of the test compound on lipogenesis was determined using tissue slices prepared from the biopsy samples, by the procedure used in the in vitro tests.

SMILES	inhibition at 100 µM [1] [%]	inhibition at 100 µg/mL (swine adipose tissue) [%]	other results
OCCNc1nc(N2CCOCC2)nc(C(Cl)(Cl)Cl)n1 [Compound 1]	57	63	inhibition of lipogenesis, by weighing fat pads on sacrifice (rats): lipogenesis had been inhibited to a significant extent; symptom of toxicity (swine): No symptom of toxicity due to the test compound was noted; effect on lipogenesis in adipose tissue biopsy samples (swine; day 13 (one week off the drug)): significantly reduced lipogenesis
OCCCNc1nc(N2CCOCC2)nc(C(Cl)(Cl)Cl)n1 [Compound 2]		59	
CC(=O)OCCNc1nc(N2CCOCC2)nc(C(Cl)(Cl)Cl)n1 [Compound 3]		33	
CC(O)CNc1nc(N2CCOCC2)nc(C(Cl)(Cl)Cl)n1 (stereo not shown) [Compound 4]		44	
COCCCNc1nc(NCCO)nc(C(Cl)(Cl)Cl)n1 [Compound 5]		44	
CC(C)OCCCNc1nc(N(CCO)CCO)nc(C(Cl)(Cl)Cl)n1 [Compound 6]		62	
CN(CCO)c1nc(N2CCOCC2)nc(C(Cl)(Cl)Cl)n1 [Compound 7]		32	
CN(CCO)c1nc(NCCO)nc(C(Cl)(Cl)Cl)n1 [Compound 8]		58	
CN(C)C(=O)OCCNc1nc(N2CCOCC2)nc(C(Cl)(Cl)Cl)n1 [Compound 9]		65	
COC(=O)CCC(=O)OCCNc1nc(N2CCOCC2)nc(C(Cl)(Cl)Cl)n1 [Compound 10]		43	
CC(=O)N1CCN(c2nc(NCC(C)O)nc(C(Cl)(Cl)Cl)n2)CC1 (stereo not shown) [Compound 11]		72	
CC(O)CNc1nc(N2CCN(C(=O)Nc3ccccc3)CC2)nc(C(Cl)(Cl)Cl)n1 (stereo not shown) [Compound 12]		29	
CC(O)CNc1nc(N2CCN(C(=O)CCC(=O)O)CC2)nc(C(Cl)(Cl)Cl)n1 (stereo not shown) [Compound 13]		21	inhibition of acetate incorporation (in words) ([1]; same procedure as Table II): not to inhibit acetate incorporation
CC(=O)NCCNc1nc(N2CCOCC2)nc(C(Cl)(Cl)Cl)n1 [Compound 14]		66	
O=C(O)CCNc1nc(N2CCOCC2)nc(C(Cl)(Cl)Cl)n1 [Compound 15]	29	44	
CCNc1nc(NCCC(=O)N2CCOCC2)nc(C(Cl)(Cl)Cl)n1 [Compound 16]		38	
CC(C)(CO)Nc1nc(NCCCN2CCOCC2)nc(C(Cl)(Cl)Cl)n1 [Compound 17]		43	
OCCNc1nc(N2CCCC2)nc(C(Cl)(Cl)Cl)n1 [Compound 18]		63	
O=C(NCCO)N1CCN(c2nc(NCCO)nc(C(Cl)(Cl)Cl)n2)CC1 [Compound 19]	44	75	
CN1CCN(c2nc(NCCO)nc(C(Cl)(Cl)Cl)n2)CC1 [Compound 20]	56	27	
OCCNc1nc(N2CCNCC2)nc(C(Cl)(Cl)Cl)n1 [Compound 21]	65		
CC(O)CNc1nc(N2CCNCC2)nc(C(Cl)(Cl)Cl)n1 (stereo not shown) [Compound 22]	30		
CCNc1nc(N2CCCCC2)nc(C(Cl)(Cl)Cl)n1 [Compound 33]	31		
